ChEMBL document CHEMBL1275498, “Disposition, metabolism, and excretion of [14C]doripenem after a single 500-milligram intravenous infusion in healthy men” (Antimicrob Agents Chemother, 2008)

Assays:
[1] = Drug excretion in healthy man urine at 500 mg, iv administered as 1 hr infusion measured after 4 hrs by Liquid scintillation counting; format: ADME, organism-based; conditions: human, in vivo
[2] = Tmax in healthy man plasma at 500 mg, iv administered as 1 hr infusion by LC-MS/MS analysis; format: ADME, organism-based; conditions: male, human
[3] = Drug excretion in healthy man urine at 500 mg, iv administered as 1 hr infusion measured after 0 to 12 hrs by Liquid scintillation counting; format: ADME, organism-based; conditions: human, in vivo
[4] = Cmax in healthy man plasma at 500 mg, iv administered as 1 hr infusion by LC-MS/MS analysis; format: ADME, organism-based; design: dose 500 mg, route intravenous; conditions: male, human
[5] = Renal clearance in healthy man assessed as doripenem-M-1, dosed at 500 mg, iv administered as 1 hr infusion; format: ADME, organism-based, Kidney; conditions: human, in vivo
[6] = Half life in healthy man plasma at 500 mg, iv administered as 1 hr infusion by LC-MS/MS analysis; format: ADME, organism-based; conditions: male, human
[7] = Elimination rate constant in plasma of healthy man dosed at 500 mg, iv administered as 1 hr infusion; format: ADME, organism-based; conditions: male, human
[8] = Drug excretion in healthy man urine at 500 mg, iv administered as 1 hr infusion measured after 8 to 12 hrs by Liquid scintillation counting; format: ADME, organism-based; conditions: human, in vivo
[9] = Drug excretion in healthy man feces at 500 mg, iv administered as 1 hr infusion measured after 7 days by Liquid scintillation counting; format: ADME, organism-based; conditions: human, in vivo
[10] = Tmax in healthy man plasma assessed as total compound-derived radioactivity at 500 mg, iv administered as 1 hr infusion by Liquid scintillation counting; format: ADME, organism-based; conditions: human, in vivo
[11] = AUC (last) in healthy man plasma at 500 mg, iv administered as 1 hr infusion by LC-MS/MS analysis; format: ADME, organism-based; design: dose 500 mg, time 0 - last, route intravenous; conditions: male, human
[12] = AUC (last) in healthy man whole blood assessed as total compound-derived radioactivity at 500 mg, iv administered as 1 hr infusion by Liquid scintillation counting; format: ADME, organism-based; design: dose 500 mg, time 0 - last, route intravenous; conditions: human, in vivo
[13] = Elimination rate constant in plasma of healthy man assessed as total compound-derived radioactivity, dosed at 500 mg, iv administered as 1 hr infusion; format: ADME, organism-based; conditions: human, in vivo
[14] = Cmax in healthy man whole blood assessed as total compound-derived radioactivity at 500 mg, iv administered as 1 hr infusion by Liquid scintillation counting; format: ADME, organism-based; design: dose 500 mg, route intravenous; conditions: human, in vivo
[15] = Elimination rate constant in plasma of healthy man assessed as doripenem-M-1, dosed at 500 mg, iv administered as 1 hr infusion; format: ADME, organism-based; conditions: human, in vivo
[16] = AUC (last) in healthy man plasma assessed as doripenem-M-1 at 500 mg, iv administered as 1 hr infusion by LC-MS/MS analysis; format: ADME, organism-based; design: dose 500 mg, time 0 - last, route intravenous; conditions: human, in vivo
[17] = AUC (0 to infinity) in healthy man plasma assessed as total compound-derived radioactivity at 500 mg, iv administered as 1 hr infusion by Liquid scintillation counting; format: ADME, organism-based; design: dose 500 mg, route intravenous, time infinity; conditions: human, in vivo
[18] = Tmax in healthy man plasma assessed as doripenem-M-1 at 500 mg, iv administered as 1 hr infusion by LC-MS/MS analysis; format: ADME, organism-based; conditions: human, in vivo
[19] = Clearance in healthy man plasma at 500 mg, iv administered as 1 hr infusion by LC-MS/MS analysis; format: ADME, organism-based; conditions: male, human
[20] = Half life in healthy man plasma assessed as doripenem-M-1 at 500 mg, iv administered as 1 hr infusion by LC-MS/MS analysis; format: ADME, organism-based; conditions: human, in vivo
[21] = AUC (0 to infinity) in healthy man plasma assessed as doripenem-M-1 at 500 mg, iv administered as 1 hr infusion by LC-MS/MS analysis; format: ADME, organism-based; design: dose 500 mg, time infinity, route intravenous; conditions: human, in vivo
[22] = AUC (last) in healthy man plasma assessed as total compound-derived radioactivity at 500 mg, iv administered as 1 hr infusion by Liquid scintillation counting; format: ADME, organism-based; design: dose 500 mg, time 0 - last, route intravenous; conditions: human, in vivo
[23] = Drug excretion in healthy man urine at 500 mg, iv administered as 1 hr infusion measured after 12 to 24 hrs by Liquid scintillation counting; format: ADME, organism-based; conditions: human, in vivo
[24] = Half life in healthy man plasma assessed as total compound-derived radioactivity at 500 mg, iv administered as 1 hr infusion by Liquid scintillation counting; format: ADME, organism-based; conditions: human, in vivo
[25] = Cmax in healthy man plasma assessed as total compound-derived radioactivity at 500 mg, iv administered as 1 hr infusion by Liquid scintillation counting; format: ADME, organism-based; design: dose 500 mg, route intravenous; conditions: human, in vivo
[26] = Cmax in healthy man plasma assessed as doripenem-M-1 at 500 mg, iv administered as 1 hr infusion by LC-MS/MS analysis; format: ADME, organism-based; design: dose 500 mg, route intravenous; conditions: human, in vivo
[27] = Drug excretion in healthy man urine at 500 mg, iv administered as 1 hr infusion measured after 7 days by Liquid scintillation counting; format: ADME, organism-based; conditions: human, in vivo
[28] = Renal clearance in healthy man dosed at 500 mg, iv administered as 1 hr infusion; format: ADME, organism-based, Kidney; conditions: male, human, in vivo
[29] = AUC (0 to infinity) in healthy man plasma at 500 mg, iv administered as 1 hr infusion by LC-MS/MS analysis; format: ADME, organism-based; design: dose 500 mg, time infinity, route intravenous; conditions: male, human
[30] = Tmax in healthy man whole blood assessed as total compound-derived radioactivity at 500 mg, iv administered as 1 hr infusion by Liquid scintillation counting; format: ADME, organism-based; conditions: human, in vivo
[31] = Drug excretion in healthy man urine at 500 mg, iv administered as 1 hr infusion measured after 4 to 8 hrs by Liquid scintillation counting; format: ADME, organism-based; conditions: human, in vivo

Q: What does the source list for `C[C@@H](O)[C@H]1C(=O)N2[C@@H]1[C@@H](C)C(S[C@@H]1CN[C@H](CNS(N)(=O)=O)C1)=[14C]2C(=O)O` [[14C]-DORIPENEM]?
A: Drug uptake [1]: 85.13%; Tmax [2]: 1.02 h; Drug uptake [3]: 93.44%; Cmax [4]: 22900 ng/mL; CLr [5]: 18.9 L/h; half-life [6]: 64.2 min; k el at 1 h [7]: 0.000183 s⁻¹; Drug uptake [8]: 1.62%; Drug uptake [9]: 0.72%; Tmax [10]: 1.02 h; AUC(0-t) at 1 h [11]: 31500 ng·h/mL; AUC [12]: 20.2 µg·h/mL; kel [13]: 0.438 h⁻¹; Cmax [14]: 13.2 µg/mL; kel [15]: 0.275 h⁻¹; AUC [16]: 4.03 µg·h/mL; AUC [17]: 39.5 µg·h/mL; Tmax [18]: 1.01 h; clearance [19]: 267 mL/min; t1/2 [20]: 2.54 h; AUC [21]: 4.98 µg·h/mL; AUC [22]: 37.5 µg·h/mL; Drug uptake [23]: 0.9%; t1/2 [24]: 1.59 h; Cmax [25]: 22.1 µg/mL; Cmax [26]: 1.56 µg/mL; Drug uptake [27]: 95.28%; CL renal at 1 h [28]: 208 mL/min; AUC(0-inf) [29]: 31800 ng·h/mL; Tmax [30]: 1.02 h; Drug uptake [31]: 6.69%
